Results from paper PMC8296573, “Synthesis and Biological Evaluation of Fingolimod Derivatives as Antibacterial Agents” (ACS Omega, 2021).
≈ marks a conversion by molar mass, not a printed value. Like-named read-outs stand apart in the source and are kept apart here.

Assays:
[1] = test system: S. aureus ATCC 25923; test: Antibacterial activity, pre-exposure (planktonic cells and biofilm formation); type: cell-based, Staphylococcus aureus; conditions: pre-exposure, ± SD
Summary of the method: (§1)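 Bacteria and compound were co-incubated from the start for 18 h at 37 °C, 220 rpm. Planktonic cells scored by turbidity plus resazurin reduction; washed biofilms scored by 20 μM resazurin (30, 60, 90 min for S. aureus, A. baumannii, P. aeruginosa) and ethanol-fixed crystal violet staining.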

[2] = test system: S. aureus ATCC 12598; test: Antibacterial activity, pre-exposure; type: cell-based, Staphylococcus aureus; conditions: for Average inhibition %, biofilms viability / Average inhibition %, planktonic cells viability / inhibition at 5 µM / inhibition at 10 µM / inhibition at 15 µM / inhibition at 25 µM: S. aureus ATCC 12598, pre-exposure, ± SD; for inhibition at 5 µM / inhibition at 10 µM / inhibition at 15 µM / inhibition at 25 µM / MIC: Staphylococcus aureus, ATCC12598
Protocol: The antimicrobial activity was assessed in a similar way for the initial screening and the dose–response evaluation against different bacterial strains. With the exception of the post-exposure experiment, the compounds were added to the wells along with the bacteria to test the ability of compounds to prevent bacterial growth and biofilm formation (pre-exposure). The compounds were diluted in DMSO and plated directly in 96-well plates before adding the bacterial culture, and plates were incubated for 18 h under aerobic conditions at 37 °C with shaking (220 rpm). The antibacterial activity of the compounds was assessed on planktonic cells and biofilms separately using two different measurements for each: optical density (turbidity) and resazurin reduction (viability) on planktonic cells and resazurin followed by a crystal violet staining assay (total biomass) on biofilms, as described in the following sections.
The resazurin staining was performed according to the protocol previously optimized with a few modifications.[46] Briefly, the planktonic solution was first transferred into a new 96-well plate and the OD of the planktonic solution was measured using a Varioskan LUX Multimode microplate reader (Thermo Scientific, Vantaa, Finland). Then, 10 μL of a 400 μM resazurin (R7017, Sigma-Aldrich, St. Louis, MO) diluted in phosphate-buffered saline (PBS) (Thermo Fisher Scientific, MA) was added to the wells (for a final resazurin concentration of 20 μM). The plate was incubated in the dark with shaking (220 rpm) for about 3–10 min at room temperature with S. aureus and A. baumannii (until the bacteria controls turned pink) or for 20 min at 37 °C with P. aeruginosa. Fluorescence was measured at λex = 560 nm and λem = 590 nm using the top optics of the Varioskan LUX Multimode microplate reader. The planktonic plate was then discarded. The original challenge plate containing the biofilms was washed once with PBS, and 200 μL of a 20 μM resazurin solution was added to the wells. The plate was incubated in the dark at 37 °C with shaking (220 rpm) for 30 min with S. aureus, 60 min with A. baumannii, and 90 min with P. aeruginosa. Fluorescence was measured as described for the planktonic solution. The biofilms were next treated with crystal violet staining.
After removing the resazurin solution from the plate, biofilms were fixed with ethanol 100% for 15 min at room temperature. Ethanol was then removed, and the biofilms were left to air-dry completely at RT. Crystal violet, diluted to 1:100 in deionized water from the 2.3% commercial solution (HT90132, Sigma-Aldrich, St. Louis, MO), was added to the wells and, after a 5 min incubation with the dye, the biofilms were washed twice with deionized water and left to air-dry for about 10 min. The dye was solubilized in ethanol 100% for 1 h, and absorbance was measured at 595 nm using a Multiskan Sky microplate spectrophotometer (Thermo Scientific, Vantaa, Finland).

[3] = test system: P. aeruginosa ATCC 9027; test: Antibacterial activity, pre-exposure; type: cell-based, Pseudomonas aeruginosa; conditions: for Average inhibition %, biofilms viability / Average inhibition %, planktonic cells viability / inhibition at 50 µM / inhibition at 100 µM / inhibition at 150 µM / inhibition at 200 µM: P. aeruginosa ATCC 9027, pre-exposure, ± SD; for inhibition at 50 µM / inhibition at 100 µM / inhibition at 150 µM / inhibition at 200 µM: Pseudomonas aeruginosa, ATCC9027
Summary of the method: as §1

## CCCCCCCCc1ccc2cc(CC(N)(CO)CO)ccc2c1 [Compound 79, 2-Amino-2-[(6-octylnaphthalen-2-yl)methyl]propane-1,3-diol]
[1]; 5 µM
  Average inhibition %, biofilms viability: 28 ± 2.7%
  Average inhibition %, planktonic cells viability: 26.3 ± 24.3%
[1]; 10 µM
  Average inhibition %, biofilms viability: 98.1 ± 0.5%
  Average inhibition %, planktonic cells viability: 99.8 ± 0%
[1]; 15 µM
  Average inhibition %, biofilms viability: 99.3 ± 0.2%
  Average inhibition %, planktonic cells viability: 99.8 ± 0.1%
[1]; 25 µM
  Average inhibition %, biofilms viability: 99.2 ± 0.3%
  Average inhibition %, planktonic cells viability: 99.9 ± 0.2%
[2]; 5 µM
  Average inhibition %, biofilms viability: 65.9 ± 50.1%
  Average inhibition %, planktonic cells viability: 69.3 ± 47.1%
[2]; 10 µM
  Average inhibition %, biofilms viability: 99.6 ± 0.1%
  Average inhibition %, planktonic cells viability: 99.8 ± 0.1%
[2]; 15 µM
  Average inhibition %, biofilms viability: 99.5 ± 0%
  Average inhibition %, planktonic cells viability: 99.6 ± 0.1%
[2]; 25 µM
  Average inhibition %, biofilms viability: 99.5 ± 0.1%
  Average inhibition %, planktonic cells viability: 99.6 ± 0.1%
[2]; 5 µM, read-out: Average inhibition %, biofilms biomass
  inhibition at 5 µM: 63.5 ± 41.5%
[2]; 5 µM, read-out: Average inhibition %, planktonic cells turbidity
  inhibition at 5 µM: 82.3 ± 26.8%
[2]; 10 µM, read-out: Average inhibition %, biofilms biomass
  inhibition at 10 µM: 94.7 ± 0.2%
[2]; 10 µM, read-out: Average inhibition %, planktonic cells turbidity
  inhibition at 10 µM: 99.6%
[2]; 15 µM, read-out: Average inhibition %, biofilms biomass
  inhibition at 15 µM: 94.6 ± 0.6%
[2]; 15 µM, read-out: Average inhibition %, planktonic cells turbidity
  inhibition at 15 µM: 99.4 ± 0.1%
[2]; 25 µM, read-out: Average inhibition %, biofilms biomass
  inhibition at 25 µM: 95 ± 1%
[2]; 25 µM, read-out: Average inhibition %, planktonic cells turbidity
  inhibition at 25 µM: 99.2 ± 0.3%
[2]; S. aureus ATCC 12598 and P2, read-out: MIC against the clinical strains of S. aureus
  MIC: 5 to 10 µM (≈ 1.72 to 3.44 µg/mL)
[2]; pre-exposure, 18 h, read-out: MIC S. aureus ATCC 12598
  MIC: 5 to 10 µM (≈ 1.72 to 3.44 µg/mL)
[3]; 50 µM
  Average inhibition %, biofilms viability: 0 ± 0%
  Average inhibition %, planktonic cells viability: 3.9 ± 3.6%
[3]; 100 µM
  Average inhibition %, biofilms viability: 0 ± 0%
  Average inhibition %, planktonic cells viability: 1.9 ± 2.3%
[3]; 150 µM
  Average inhibition %, biofilms viability: 0.5 ± 0.9%
  Average inhibition %, planktonic cells viability: 4.2 ± 7.4%
[3]; 200 µM
  Average inhibition %, biofilms viability: 2.1 ± 3.6%
  Average inhibition %, planktonic cells viability: 7.6 ± 13.1%
[3]; 50 µM, read-out: Average inhibition %, biofilms biomass
  inhibition at 50 µM: 1.2 ± 1.5%
[3]; 50 µM, read-out: Average inhibition %, planktonic cells turbidity
  inhibition at 50 µM: 23.6 ± 9%
[3]; 100 µM, read-out: Average inhibition %, biofilms biomass
  inhibition at 100 µM: 3.6 ± 4.7%
[3]; 100 µM, read-out: Average inhibition %, planktonic cells turbidity
  inhibition at 100 µM: 23 ± 3.8%
[3]; 150 µM, read-out: Average inhibition %, biofilms biomass
  inhibition at 150 µM: 6.1 ± 5.3%
[3]; 150 µM, read-out: Average inhibition %, planktonic cells turbidity
  inhibition at 150 µM: 28 ± 2.4%
[3]; 200 µM, read-out: Average inhibition %, biofilms biomass
  inhibition at 200 µM: 0%
[3]; 200 µM, read-out: Average inhibition %, planktonic cells turbidity
  inhibition at 200 µM: 25 ± 2.8%
[3]; pre-exposure, Inactive = no activity up to 200 μM, > = some inhibition but no MIC reached
  MIC P. aeruginosa ATCC 9027: Inactive
